From patent US20040024024A1, “Aromatic sulfone hydroxamates and their use as protease inhibitors” (priority 2001, published 2004)
Counter-ions that a name gives are not always drawn.

Assays:
Experiment in all cases: In vitro MMP inhibition, IC50 determination (fluorogenic substrate I)
Format in all cases: biochemical
Human recombinant MMP-1 = molecular target: T1, Human recombinant MMP-1 (Homo sapiens, UniProt P03956)
T1 construct: made in house; host or cells: MMP-1-transfected HT-1080 cells (spent media)
T1 sequence (P03956 100-469): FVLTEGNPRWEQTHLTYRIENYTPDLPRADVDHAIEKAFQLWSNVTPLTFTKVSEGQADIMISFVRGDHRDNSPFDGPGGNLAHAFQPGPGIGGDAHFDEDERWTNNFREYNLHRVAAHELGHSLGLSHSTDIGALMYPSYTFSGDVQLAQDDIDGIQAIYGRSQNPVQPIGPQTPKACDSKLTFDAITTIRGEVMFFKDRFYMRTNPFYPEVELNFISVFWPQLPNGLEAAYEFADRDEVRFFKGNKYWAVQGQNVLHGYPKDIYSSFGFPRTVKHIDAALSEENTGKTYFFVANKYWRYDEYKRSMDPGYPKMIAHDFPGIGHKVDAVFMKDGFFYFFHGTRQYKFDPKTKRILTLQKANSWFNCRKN
Outline: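 Inhibitor dilutions were made in 100 mM Tris-HCl/100 mM NaCl/10 mM CaCl2 buffer, pH 7.5, and incubated at room temperature with activated proenzyme (from transfected HT-1080 media; APMA or trypsin) and 4 μM quenched methoxycoumarin peptide substrate. Loss of 415 nm fluorescence (328 nm excitation) against concentration gave IC50.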

Human recombinant MMP-2 = molecular target: T2, Human recombinant MMP-2 (Homo sapiens, UniProt P08253)
T2 construct: made in house; host or cells: MMP-2-transfected p2AHT2 cells
T2 sequence (P08253 110-660): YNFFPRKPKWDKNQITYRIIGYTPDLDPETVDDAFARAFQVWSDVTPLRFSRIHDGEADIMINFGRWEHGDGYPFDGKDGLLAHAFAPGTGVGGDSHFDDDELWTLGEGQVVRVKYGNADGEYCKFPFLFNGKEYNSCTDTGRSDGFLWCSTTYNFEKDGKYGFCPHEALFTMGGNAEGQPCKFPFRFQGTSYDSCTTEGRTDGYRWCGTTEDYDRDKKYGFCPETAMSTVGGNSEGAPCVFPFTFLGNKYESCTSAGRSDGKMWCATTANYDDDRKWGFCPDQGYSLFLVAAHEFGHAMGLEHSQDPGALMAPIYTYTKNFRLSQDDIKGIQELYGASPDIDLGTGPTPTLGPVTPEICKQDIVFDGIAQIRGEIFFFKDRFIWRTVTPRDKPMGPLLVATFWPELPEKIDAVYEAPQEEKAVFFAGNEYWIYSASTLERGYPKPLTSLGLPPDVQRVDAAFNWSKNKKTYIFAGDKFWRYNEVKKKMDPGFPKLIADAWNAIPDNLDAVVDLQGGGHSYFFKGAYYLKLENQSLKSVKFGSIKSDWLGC
Outline: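 IC50 was derived from the concentration-dependent fall in fluorescence (ex 328, em 415 nm) on Gly-Leu cleavage of 4 μM MCA/Dpa-quenched substrate I. Assays ran at room temperature in pH 7.5 Tris/NaCl/CaCl2/Brij buffer with MMP-2 activated by trypsin or APMA; inhibitors were diluted from 1% DMSO stocks.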

Human recombinant MMP-14 = molecular target: T3, Human recombinant MMP-14 (Homo sapiens, UniProt P50281)
T3 construct: The catalytic domain enzyme was expressed in E. coli inclusion bodies, solubilized in urea; made in house
Outline: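 IC50 came from reduced fluorescence (ex 328 nm, em 415 nm) as inhibitor concentration rose, with 4 μM substrate I cleaved at Gly-Leu. Room-temperature incubation in pH 7.5 Tris buffer with 10 mM CaCl2; the E. coli-expressed, refolded MMP-14 catalytic domain was activated with trypsin or APMA.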

[1] = substrate (I) 4 μM, room temperature, values not in parenthesis

Structure (SMILES)	IC50 (Human recombinant MMP-1; value outside parenthesis)	IC50 (Human recombinant MMP-2; value outside parenthesis)	IC50 (Human recombinant MMP-14; value outside parenthesis)	other results
O=C(NO)C1(S(=O)(=O)c2ccc(OCCCc3cncc(-c4ccccc4)c3)cc2)CCOCC1 [Example 524]	–	–	–	IC50 (Human recombinant MMP-1; value outside parentheses): > 10 µM; IC50 (Human recombinant MMP-2; value outside parentheses): 0.0383 µM; IC50 (Human recombinant MMP-14; value outside parentheses): > 10 µM
COCCN1CCC(C(=O)NO)(S(=O)(=O)c2ccc(OCCCc3nc(-c4ccc(OC(F)(F)F)cc4)no3)cc2)CC1 [Example 42]	–	–	–	IC50 (Human recombinant MMP-1; [1]): > 10 µM; IC50 (Human recombinant MMP-2; [1]): 0.1 µM; IC50 (Human recombinant MMP-14; [1]): > 10 µM
N#Cc1ccc(-c2cccc(CCCOc3ccc(S(=O)(=O)C4(C(=O)NO)CCOCC4)cc3)c2)cc1 [Example 624]	–	–	–	IC50 (Human recombinant MMP-1; value outside parentheses): > 10 µM; IC50 (Human recombinant MMP-2; value outside parentheses): 0.214 µM; IC50 (Human recombinant MMP-14; value outside parentheses): > 10 µM
O=C(NO)C1(S(=O)(=O)c2ccc(OCCCc3cccc(Cc4ccccc4)c3)cc2)CCOCC1 [Example 98]	> 10 µM	0.316 µM	> 10 µM	–
COCCN1CCC(C(=O)NO)(S(=O)(=O)c2ccc(OCCCc3cccc(-c4ccc(F)cc4)c3)cc2)CC1 [Example 140]	> 10 µM	0.048 µM	> 10 µM	–
O=C(NO)C1(S(=O)(=O)c2ccc(OCCCc3cccc(-c4ccc([N+](=O)[O-])cc4)c3)cc2)CCOCC1 [Example 626]	–	–	–	IC50 (Human recombinant MMP-1; value outside parentheses): > 10 µM; IC50 (Human recombinant MMP-2; value outside parentheses): 0.143 µM; IC50 (Human recombinant MMP-14; value outside parentheses): > 10 µM
COCCN1CCC(C(=O)NO)(S(=O)(=O)c2ccc(OCCCn3nnc(-c4ccc(OC(F)(F)F)cc4)n3)cc2)CC1 [Example 48]	–	–	–	IC50 (Human recombinant MMP-1; [1]): > 10 µM; IC50 (Human recombinant MMP-2; [1]): 0.105 µM; IC50 (Human recombinant MMP-14; [1]): > 10 µM
O=C(NO)C1(S(=O)(=O)c2ccc(OCCCc3cccc(-c4ccsc4)c3)cc2)CCOCC1 [Example 632]	–	–	–	IC50 (Human recombinant MMP-1; value outside parentheses): > 10 µM; IC50 (Human recombinant MMP-2; value outside parentheses): 0.091 µM; IC50 (Human recombinant MMP-14; value outside parentheses): > 10 µM
O=C(NO)C1(S(=O)(=O)c2ccc(OCCc3cccc(-c4cccnc4)c3)cc2)CCOCC1 [Example 125]	2.94 µM	0.0273 µM	5.82 µM	–
O=C(NO)C1(S(=O)(=O)c2ccc(OCCCn3nnc(-c4ccc(OC(F)(F)F)cc4)n3)cc2)CCN(CC2CC2)CC1 [Example 53]	–	–	–	IC50 (Human recombinant MMP-1; [1]): > 10 µM; IC50 (Human recombinant MMP-2; [1]): 0.384 µM; IC50 (Human recombinant MMP-14; [1]): > 10 µM
CCN1CCC(C(=O)NO)(S(=O)(=O)c2ccc(OCCCc3nc(-c4ccc(OC(F)(F)F)cc4)no3)cc2)CC1 [Example 41, 1-ethyl-N-hydroxy 4-{[4-(3-{3-[4-(trifluoromethoxy)phenyl]-1,2,4-oxadiazol-5-yl}propoxy)phenyl]sulfonyl}piperidine-4-carboxamide Hydrochloride]	–	–	–	IC50 (Human recombinant MMP-1; [1]): > 10 µM; IC50 (Human recombinant MMP-2; [1]): 0.357 µM; IC50 (Human recombinant MMP-14; [1]): > 10 µM
O=C(NO)C1(S(=O)(=O)c2ccc(OCCOc3cccc(-c4ccccc4)c3)cc2)CCOCC1 [Example 157]	> 10 µM	0.182 µM	> 10 µM	–
O=C(NO)C1(S(=O)(=O)c2ccc(OCCCc3cc(-c4ccc(OC(F)(F)F)cc4)cs3)cc2)CCOCC1 [Example 608]	–	–	–	IC50 (Human recombinant MMP-1; value outside parentheses): > 10 µM; IC50 (Human recombinant MMP-2; value outside parentheses): 0.342 µM; IC50 (Human recombinant MMP-14; value outside parentheses): > 10 µM
O=C(NO)C1(S(=O)(=O)c2ccc(OCCCc3cncc(-c4ccc(F)cc4)c3)cc2)CCOCC1 [Example 523]	–	–	–	IC50 (Human recombinant MMP-1; value outside parentheses): 8.07 µM; IC50 (Human recombinant MMP-2; value outside parentheses): 0.162 µM; IC50 (Human recombinant MMP-14; value outside parentheses): > 10 µM
O=C(Cc1csc2ccccc12)NCCOc1ccc(S(=O)(=O)C2(C(=O)NO)CCOCC2)cc1 [Example 596]	–	–	–	IC50 (Human recombinant MMP-1; value outside parentheses): > 10 µM; IC50 (Human recombinant MMP-2; value outside parentheses): 0.0103 µM; IC50 (Human recombinant MMP-14; value outside parentheses): 2.49 µM
CC(C)C(=O)c1cccc(CCCOc2ccc(S(=O)(=O)C3(C(=O)NO)CCOCC3)cc2)c1 [Example 95]	> 10 µM	0.0914 µM	> 10 µM	–
O=C(NO)C1(S(=O)(=O)c2ccc(OCCCc3nc(-c4ccc(OC(F)(F)F)cc4)no3)cc2)CCN(C2CC2)CC1 [Example 51, 1-cyclopropyl-N-hydroxy-4-{[4-(3-{3-[4-(trifluoromethoxy)phenyl]-1,2,4-oxadiazol-5-yl}propoxy)phenyl]sulfonyl}piperidine-4-carboxamide Hydrochloride]	–	–	–	IC50 (Human recombinant MMP-1; [1]): > 10 µM; IC50 (Human recombinant MMP-2; [1]): 0.252 µM; IC50 (Human recombinant MMP-14; [1]): > 10 µM
O=C(NO)C1(S(=O)(=O)c2ccc(OCCc3cccc(-c4ccncc4)c3)cc2)CCOCC1 [Example 113]	> 10 µM	0.0203 µM	7.72 µM	–
O=C(NO)C1(S(=O)(=O)c2ccc(OCCCc3cccc(-c4cccs4)c3)cc2)CCOCC1 [Example 595]	–	–	–	IC50 (Human recombinant MMP-1; value outside parentheses): > 10 µM; IC50 (Human recombinant MMP-2; value outside parentheses): 0.482 µM; IC50 (Human recombinant MMP-14; value outside parentheses): > 10 µM
COCCN1CCC(C(=O)NO)(S(=O)(=O)c2ccc(OCCCc3nc(-c4ccccc4OC(F)(F)F)no3)cc2)CC1 [Example 152]	> 10 µM	0.0588 µM	> 10 µM	–
CCc1ccccc1-c1noc(CCCOc2ccc(S(=O)(=O)C3(C(=O)NO)CCN(CCOC)CC3)cc2)n1 [Example 155]	> 10 µM	0.0138 µM	> 10 µM	–
O=C(NO)C1(S(=O)(=O)c2ccc(OCCCc3cccc(Br)c3)cc2)CCOCC1 [Example 154]	> 10 µM	0.0109 µM	9.12 µM	–
O=C(NO)C1(S(=O)(=O)c2ccc(OCCCc3cc(-c4ccc(F)cc4F)cs3)cc2)CCOCC1 [Example 587]	–	–	–	IC50 (Human recombinant MMP-1; value outside parentheses): > 10 µM; IC50 (Human recombinant MMP-2; value outside parentheses): 0.0817 µM; IC50 (Human recombinant MMP-14; value outside parentheses): > 10 µM
CCN1CCC(C(=O)NO)(S(=O)(=O)c2ccc(OCCCSc3nc4ccccc4s3)cc2)CC1 [Example 591]	–	–	–	IC50 (Human recombinant MMP-1; value outside parentheses): > 10 µM; IC50 (Human recombinant MMP-2; value outside parentheses): 0.0035 µM; IC50 (Human recombinant MMP-14; value outside parentheses): > 10 µM

Continued, in another order:

IC50 (Human recombinant MMP-1; value outside parenthesis)	IC50 (Human recombinant MMP-2; value outside parenthesis)	IC50 (Human recombinant MMP-14; value outside parenthesis)	Structure (SMILES)	other results
> 10 µM	0.438 µM	> 10 µM	COCCN1CCC(C(=O)NO)(S(=O)(=O)c2ccc(OCCCc3nc(-c4ccc(CC(C)C)cc4)no3)cc2)CC1 [Example 175]	–
> 10 µM	1.37 µM	> 10 µM	O=C(NO)C1(S(=O)(=O)c2ccc(OCCCc3cccc(-c4ccccc4F)c3)cc2)CCOCC1 [Example 163]	–
> 10 µM	0.0608 µM	> 10 µM	O=C(CCCc1ccc(S(=O)(=O)C2(C(=O)NO)CCOCC2)cc1)c1cccc(-c2ccccc2)c1 [Example 219]	–
> 10 µM	1 µM	> 10 µM	O=C(NO)C1(S(=O)(=O)c2ccc(OCCCc3cccc(-c4cccc(F)c4)c3)cc2)CCOCC1 [Example 161]	–
> 10 µM	0.0139 µM	8.06 µM	O=C(CCCOc1ccc(S(=O)(=O)C2(C(=O)NO)CCOCC2)cc1)Nc1cccc(OC(F)(F)F)c1 [Example 181]	–
> 10 µM	0.59 µM	> 10 µM	Cc1cc(NC(=O)CCCOc2ccc(S(=O)(=O)C3(C(=O)NO)CCOCC3)cc2)ccc1OC(C)C [Example 290]	–
> 10 µM	0.0331 µM	> 10 µM	CC(C)c1cccc(NC(=O)CCCOc2ccc(S(=O)(=O)C3(C(=O)NO)CCOCC3)cc2)c1 [Example 182]	–
> 10 µM	0.226 µM	> 10 µM	CN(C(=O)CCCOc1ccc(S(=O)(=O)C2(C(=O)NO)CCOCC2)cc1)c1ccc(OC(F)(F)F)cc1 [Example 249]	–
4.41 µM	0.0025 µM	7.63 µM	O=C(CCCOc1ccc(S(=O)(=O)C2(C(=O)NO)CCOCC2)cc1)Nc1ccc(OC(F)(F)F)cc1 [Example 250]	–
6.87 µM	0.0114 µM	> 10 µM	O=C(CCCOc1ccc(S(=O)(=O)C2(C(=O)NO)CCOCC2)cc1)Nc1ccc(OC(F)(F)F)cc1 [Example 228]	–
> 10 µM	0.0132 µM	> 10 µM	O=C(NO)C1(S(=O)(=O)c2ccc(OCCCc3ccnc(-c4ccccc4)c3)cc2)CCOCC1 [Example 197]	–
